Patent publication US6432993B1, “Substituted fused heterocyclic compound” (Sankyo Company, Limited, priority 1997, dated 2002)
Converted amounts (≈) assume the structure as drawn. Where a name gives a salt, the structure may show the parent alone.

Legend:
5-lipoxygenase = target: T1, 5-lipoxygenase (Cavia porcellus, UniProt A0A286X958); assay: 5-Lipoxygenase inhibitory action (5-HETE formation, guinea pig polymorphonuclear leukocyte enzyme); assay type: biochemical; details: 25° C. 5 minutes, 5-HETE by HPLC, read-out: IC50 (50% inhibition concentration against 5-lipoxygenase) (converted)
T1 sequence (A0A286X958 1-674): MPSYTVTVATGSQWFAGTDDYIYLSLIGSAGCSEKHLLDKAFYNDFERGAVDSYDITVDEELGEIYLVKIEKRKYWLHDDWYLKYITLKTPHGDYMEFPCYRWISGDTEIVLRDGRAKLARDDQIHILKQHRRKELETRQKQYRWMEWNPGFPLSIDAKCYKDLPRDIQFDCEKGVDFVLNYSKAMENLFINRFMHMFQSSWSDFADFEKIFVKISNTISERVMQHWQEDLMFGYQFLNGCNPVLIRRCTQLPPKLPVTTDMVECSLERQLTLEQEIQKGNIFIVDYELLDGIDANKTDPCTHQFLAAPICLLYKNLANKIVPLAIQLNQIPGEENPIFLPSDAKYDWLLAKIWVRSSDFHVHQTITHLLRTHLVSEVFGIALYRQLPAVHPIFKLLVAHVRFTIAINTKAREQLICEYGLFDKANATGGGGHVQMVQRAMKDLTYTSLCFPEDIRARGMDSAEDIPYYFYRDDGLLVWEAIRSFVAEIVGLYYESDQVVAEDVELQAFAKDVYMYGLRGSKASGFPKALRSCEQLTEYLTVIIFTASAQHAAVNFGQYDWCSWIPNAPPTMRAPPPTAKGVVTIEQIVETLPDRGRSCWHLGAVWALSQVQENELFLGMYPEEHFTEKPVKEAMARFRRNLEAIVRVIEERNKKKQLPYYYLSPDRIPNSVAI
Method: 5-Lipoxygenase Inhibitory Action
Into 5 μl of a solution of the test compound in dimethylsulfoxide, 750 μl of a 1/15M phosphate buffer (pH 7.4) which was prepared by dissolving a wrapper of phosphate buffer powder (Yatron) in 10 ml of water, 40 μl of a 30 mM aqueous calcium chloride solution, 50 μl of a 20 mM aqueous GSH (glutathione, reduced form) solution, 50 μl of a 40 mM aqueous ATP (adenosine-5-triphosphate) solution and 100 μl of guinea pig polymorphonuclear leukocyte enzyme were added, followed by stirring at 25° C. for 5 minutes. To initiate the reaction, 5 μl of […] (10 mg/ml ethanol) were added to said mixture and the mixture was stirred at 25° C. for 5 minutes. 50 μl of 2N hydrochloric acid were added to the reaction mixture to terminate the reaction. 2.0 ml of ethyl acetate containing an internal standard substance (internal standard substance: 2 μg/ml of isoamyl paraben) were then added to the reaction mixture. The resulting mixture was extracted for 1 minute by a mixer, followed by centrifugal separation at 3000 rpm for 5 minutes. The ethyl acetate layer was separated, evaporated to dryness under reduced pressure and then dissolved in 200 μl of acetonitrile. By high-performance liquid chromatography, the amount of 5-HETE formed was determined. From the determination of 5-HETE of the control without the test compounds and that of the test compounds, an inhibition rate (%) was found and the 50% inhibition concentration of the test compounds against 5-lipoxygenase was determined.

[1] = system: lipid peroxide production, rat hepatic microsome; assay: Anti-lipid-peroxide action: inhibition of lipid peroxide production in rat hepatic microsome; assay type: biochemical; details: Wister rat hepatic microsome, ferrous sulfate/cysteine, 37° C. 30 minutes, thiobarbituric acid absorbance 535 nm
Method: Anti-lipid-peroxide Action
The inhibitory effect of the invention compound against the production of lipid peroxide was conducted using rat hepatic microsome.
To 400 μl of a 1:2 mixture of a buffer [a 0.1M aqueous tris(hydroxymethyl)aminomethane solution adjusted to pH 7.4 by hydrochloric acid] and a 0.15M aqueous potassium chloride solution were added 5 μl of a solution of a predetermined concentration of the test compound in dimethyl sulfoxide, and 100 μl of hepatic microsome prepared from Wister rat (10 week old), followed by stirring at 37° C. for 5 minutes. To initiate the reaction of said mixture, 10 μl of a 1:1 mixed solution of a 0.5 mM aqueous solution of ferrous sulfate 7 hydrate and a 50 mM aqueous cysteine solution was added and the resulting mixture was stirred at 37° C. for 30 minutes. 1 ml of a 10% aqueous solution of trichloroacetic acid was added to the reaction mixture to terminate the reaction. The reaction mixture was centrifuged at 3000 rpm at 5° C. for 10 minutes and the supernatant was separated. To 1.0 ml of the supernatant, 1.0 ml of 50% aqueous acetic acid containing 0.67% of thiobarbituric acid was added and the mixture was boiled at 100° C. for 15 minutes. After the resulting mixture was allowed to stand at room temperature for 15 minutes, the absorbance at the wavelength of 535 nm was measured. From the absorbance of the control measured without the test compound and that of the test compounds of a predetermined concentration, an inhibition rate (%) was determined and the 50% inhibition concentration of the test compound against lipid peroxide was determined.

[2] = system: KK mice which developed diabetes; assay: Hypoglycemic action in diabetic KK mice; assay type: in vivo; details: powdery food containing 0.01% test compound for three days, plasma glucose vs control; for inhibition in vivo at 0.01 % in diet: Mus musculus, po, 72 h, read-out: Blood sugar lowering rate (%)
Method: The blood sample was collected from the caudal vein of each of KK mice (4-5 month old) which developed diabetes and its blood sugar level was measured. The mice were then classified into groups (4 mice per group) so that they would be equal in the average of the blood sugar levels of the mice. For three days, powdery food (F-1, produced by Funabashi Farm) adjusted to contain the test compound in an amount of 0.01% was administered to mice. The mouse group to which the test compound was administered refers to “the medicine administered group”, while that to which the powdery food free of the test compound was administered refers to “the control”. After three days, the blood sample was collected from the caudal vein of each of the mice and the glucose concentration in the plasma obtained by centrifugal separation was measured by a glucose analyzer (“Glucoroder”, A&T Inc.). The blood-sugar lowering rate was calculated from the following equation:
Blood sugar lowering rate (%)=(average blood sugar level of the control−average blood sugar level of the medicine administered group)×100/the blood sugar level of the control

IC50 (50% inhibition concentration against lipid peroxide) [1] [µg/mL] | SMILES | inhibition in vivo at 0.01 % in diet [2] [%] | other results
– | Cc1cc(O)ccc1Oc1ccc2nc(COc3ccc(CC4SC(=O)NC4=O)cc3)n(C)c2c1.Cl (stereo not shown) | – | melting point: 165 to 168 °C
0.97 (≈ 1.87 µM) | Cc1cc(Oc2ccc3nc(COc4ccc(CC5SC(=O)NC5=O)cc4)n(C)c3n2)c(C)c(C)c1O (stereo not shown) [Example 1-2a, 5-{4-[5-(4-Hydroxy-2,3,5-trimethylphenoxy)-3-methyl-3H-imidazo[4,5-b]pyridin-2-ylmethoxy]benzyl}thiazolidine-2,4-dione] | – | IC50 (5-lipoxygenase): 1140 nM
– | Cc1cc(Oc2ccc3nc(COc4ccc(CC5SC(=O)NC5=O)cc4)n(C)c3n2)c(C)c(C)c1O (stereo not shown) [Example 1-2b, 5-{4-[5-(4-Hydroxy-2,3,5-trimethylphenoxy)-3-methyl-3H-imidazo[4,5-b]pyridin-2-ylmethoxy]benzyl}thiazolidine-2,4-dione hydrochloride] | 48.1 | –
0.54 (≈ 1.04 µM) | Cc1cc(Oc2ccc3nc(COc4ccc(CC5SC(=O)NC5=O)cc4)n(C)c3c2)c(C)c(C)c1O (stereo not shown) [Example 2-2a, 5-{4-[6-(4-Hydroxy-2,3,5-trimethylphenoxy)-1-methyl-1H-benzimidazol-2-ylmethoxy]benzyl}thiazolidine-2,4-dione] | – | IC50 (5-lipoxygenase): 193 nM
– | Cc1cc(Oc2ccc3nc(COc4ccc(CC5SC(=O)NC5=O)cc4)n(C)c3c2)c(C)c(C)c1O (stereo not shown) [Example 2-2b, 5-{4-[6-(4-Hydroxy-2,3,5-trimethylphenoxy)-1-methyl-1H-benzimidazol-2-ylmethoxy]benzyl}thiazolidine-2,4-dione hydrochloride] | 49.2 | –
– | Cn1c(COc2ccc(CC3SC(=O)NC3=O)cc2)nc2ccc(Oc3ccc(O)cc3)cc21 (stereo not shown) [Example 3-2, 5-{4-[6-(4-Hydroxyphenoxy)-1-methyl-1H-benzimidazol-2-ylmethoxy]benzyl}thiazolidine-2,4-dione] | 60.1 | –
0.83 (≈ 1.65 µM) | Cc1cc(Oc2ccc3nc(COc4ccc(CC5SC(=O)NC5=O)cc4)n(C)c3c2)cc(C)c1O (stereo not shown) [Example 4-2a, 5-{4-[6-(4-Hydroxy-3,5-dimethylphenoxy)-1-methyl-1H-benzimidazol-2-ylmethoxy]benzyl}thiazolidine-2,4-dione] | 67.5 | IC50 (5-lipoxygenase): 397 nM
1.3 | Cc1cc(Oc2ccc3nc(COc4ccc(CC5SC(=O)NC5=O)cc4)n(C)c3c2)c(Cl)c(C)c1O.Cl (stereo not shown) [Example 5b, 5-{4-[6-(2-Chloro-4-hydroxy-3,5-dimethylphenoxy)-1-methyl-1H-benzimidazol-2-ylmethoxy]benzyl}thiazolidine-2,4-dione hydrochloride] | – | IC50 (5-lipoxygenase): 923 nM
– | Cn1c(COc2ccc(CC3SC(=O)NC3=O)cc2)nc2ccc(Oc3ccccn3)cc21 (stereo not shown) [Example 6-2, 5-{4-[6-(Pyridin-2-yloxy)-1-methyl-1H-benzimidazol-2-ylmethoxy]benzyl}thiazolidine-2,4-dione] | 62.6 | –
0.65 | Cl.Cn1c(COc2ccc(CC3SC(=O)NC3=O)cc2)nc2ccc(Sc3cc(C(C)(C)C)c(O)c(C(C)(C)C)c3)cc21.Cn1c(COc2ccc(CC3SC(=O)NC3=O)cc2)nc2ccc(Sc3cc(C(C)(C)C)c(O)c(C(C)(C)C)c3)cc21 (stereo not shown) [Example 7-2a, 5-{4-[6-(3,5-Di-t-butyl-4-hydroxyphenylthio)-1-methyl-1H-benzimidazol-2-ylmethoxy]benzyl}thiazolidine-2,4-dione 1/2 hydrochloride] | – | Blood sugar lowering rate (%) [2]: 71.7%
3.2 | Cc1cc(Oc2ccc3nc(COc4ccc(CC5SC(=O)NC5=O)cc4)n(C)c3c2)cc(C)c1N.Cl.Cl (stereo not shown) [Example 8-2b, 5-{4-[6-(4-Amino-3,5-dimethylphenoxy)-1-methyl-1H-benzimidazol-2-ylmethoxy]benzyl}thiazolidine-2,4-dione dihydrochloride] | – | –
– | Cn1c(COc2ccc(CC3SC(=O)NC3=O)cc2)nc2ccc(Sc3ccccn3)cc21 (stereo not shown) [Example 13-2b, 5-{4-[1-Methyl-6-(pyridin-2-ylthio)-1H-benzimidazole-2-ylmethoxy]benzyl}thiazolidine-2,4-dione dihydrochloride] | 68.1 | –
– | Cn1c(COc2ccc(CC3SC(=O)NC3=O)cc2)nc2ccc(Oc3ccc(-n4ccnc4)cc3)cc21 (stereo not shown) [Example 19-2, 5-{4-(6-[4-(Imidazole-1-yl)phenoxy]-1-methyl-1H-benzimidazole-2-ylmethoxy)benzyl}thiazolidine-2,4-dione dihydrochloride] | 66.8 | –
– | Cc1ccc(Sc2ccc3nc(COc4ccc(CC5SC(=O)NC5=O)cc4)n(C)c3c2)cc1 (stereo not shown) [Example 34-2b, 5-{4-[1-Methyl-6-(4-methylthiophenoxy)-1H-benzimidazole-2-ylmethoxy]benzyl}thiazolidine-2,4-dione hydrochloride] | 71.2 | –
– | Cn1c(COc2ccc(CC3SC(=O)NC3=O)cc2)nc2ccc(Oc3ccc(C#N)cc3)cc21 (stereo not shown) [Example 40, 5-{4-[6-(4-Cyanophenoxy)-1-methyl-1H-benzimidazole-2-ylmethoxy]benzyl}thiazolidine-2,4-dione hydrochloride] | 66.4 | –
– | Cn1c(COc2ccc(CC3SC(=O)NC3=O)cc2)nc2ccc(Oc3ccc(NC(=O)c4cccnc4)cc3)cc21 (stereo not shown) [Example 51, 5-{4-[6-(4-Nicotinoylaminophenoxy)-1-methyl-1H-benzimidazole-2-ylmethoxy]benzyl}thiazolidine-2,4-dione] | 63.6 | –
